The text below walks through data of PubChem BioAssay AID248 (DTP/NCI, 2004).

The subject of the experiment is L1210 leukemia ip in BDF1 mice, survival T/C. In words: NCI In Vivo Anticancer Drug Screen. Data for tumor model L1210 Leukemia (intraperitoneal) in B6D2F1 (BDF1) mice. To be noted: higher = longer survival. In short, it runs like this: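 Each compound was tested against a transplantable tumor grown in mice. The endpoint was survival, with treated animals benchmarked against vehicle controls as a simple ratio.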

Setting [1] is: endpoint: mean survival time, dose: 100.0 mg/kg/injection, schedule: Q01DX009 (ip), vehicle: saline with Tween-80.
The mark [2] stands for this setting: endpoint: mean survival time, dose: 100.0 mg/kg/injection, schedule: Q04DX003 (ip), vehicle: saline with Tween-80.
The mark [3] stands for this setting: endpoint: mean survival time, dose: 200.0 mg/kg/injection, schedule: Q01DX009 (ip), vehicle: saline with Tween-80.
Setting [4] is: endpoint: mean survival time, dose: 200.0 mg/kg/injection, schedule: Q04DX003 (ip), vehicle: saline with Tween-80.
[5] abbreviates: endpoint: mean survival time, dose: 400.0 mg/kg/injection, schedule: Q04DX003 (ip), vehicle: saline with Tween-80.
The mark [6] stands for this setting: endpoint: mean survival time, dose: 100.0 mg/kg/injection, schedule: Q01DX001 (ip), vehicle: saline.
[7] abbreviates: endpoint: mean survival time, dose: 200.0 mg/kg/injection, schedule: Q01DX001 (ip), vehicle: saline.
The mark [8] stands for this setting: endpoint: mean survival time, dose: 400.0 mg/kg/injection, schedule: Q01DX001 (ip), vehicle: saline.
Setting [9] is: endpoint: mean survival time, dose: 100.0 mg/kg/injection, schedule: Q04DX002 (ip), vehicle: saline.
[10] abbreviates: endpoint: mean survival time, dose: 200.0 mg/kg/injection, schedule: Q04DX002 (ip), vehicle: saline.
Setting [11] is: endpoint: mean survival time, dose: 100.0 mg/kg/injection, schedule: Q04DX003 (ip), vehicle: saline.
The mark [12] stands for this setting: endpoint: mean survival time, dose: 200.0 mg/kg/injection, schedule: Q04DX003 (ip), vehicle: saline.
Where [13] appears, read: endpoint: mean survival time, dose: 400.0 mg/kg/injection, schedule: Q04DX003 (ip), vehicle: saline.
The mark [14] stands for this setting: endpoint: mean survival time, dose: 400.0 mg/kg/injection, schedule: Q04DX002 (ip), vehicle: saline.

Several values for one entry are separate records, joined by “and”; a condition that tells them apart may be missing. Equal entries are not always repeated. Toxic doses and inconclusive results are not listed.

Consider `C#CCNC(=O)NCCCl`, for which the T/C was 97 % of control under setting [1]; 101 % of control under setting [2]; 99 % of control under setting [3]; 104 % of control under setting [4]; 97 % of control (endpoint: mean survival time, dose: 400.0 mg/kg/injection, schedule: Q01DX009 (ip), vehicle: saline with Tween-80); 101 % of control under setting [5].

With `Nc1cccc(CC(=O)Nc2ccc(S(=O)(=O)F)cc2)c1`, the T/C by setting is: under setting [6], 90 % of control; under setting [7], 106 % of control; under setting [8], 100 % of control.

`Cc1cc(=O)[nH]c(NCC(=O)O)n1`: the T/C is 101 % of control (endpoint: mean survival time, dose: 50.0 mg/kg/injection, schedule: Q04DX002 (ip), vehicle: saline); 101 % of control under setting [9]; 101 % of control under setting [10].

As to `CCCCC(=O)NCCc1ccc2c([nH]c3ccccc32)c1C`, the T/C under setting [11] is 96 % of control, the T/C under setting [12] is 104 % of control and the T/C under setting [13] was 96 % of control.

`CCCC(=O)Nc1ccc(O)cc1`: the T/C is, setting by setting: under setting [1], 100 % of control; under setting [2], 96 % of control; under setting [3], 110 % of control; under setting [4], 101 % of control; (endpoint: mean survival time, dose: 266.0 mg/kg/injection, schedule: Q01DX009 (ip), vehicle: saline with Tween-80) 109 % of control; under setting [5], 106 % of control.

Consider `Cc1[nH]c(=O)ncc1CCOCc1ccccc1`, for which the T/C was 104 % of control (endpoint: mean survival time, dose: 100.0 mg/kg/injection, schedule: Q01DX001 (ip), vehicle: carboxymethylcellulose (CMC)); 109 % of control (endpoint: mean survival time, dose: 200.0 mg/kg/injection, schedule: Q01DX001 (ip), vehicle: carboxymethylcellulose (CMC)); 104 % of control (endpoint: mean survival time, dose: 400.0 mg/kg/injection, schedule: Q01DX001 (ip), vehicle: carboxymethylcellulose (CMC)).

Take `O=C(C1CC=CCC1)N1CCCCCC1` (centres undefined): the T/C is 101 % of control under setting [9], 111 % of control under setting [10] and 99 % of control under setting [14].

`O=[N+]([O-])c1ccccc1N=P(c1ccccc1)(c1ccccc1)c1ccccc1`: the T/C (endpoint: mean survival time, dose: 50.0 mg/kg/injection, schedule: Q01DX009 (ip), vehicle: DMSO) is 91 % of control; the T/C (endpoint: mean survival time, dose: 100.0 mg/kg/injection, schedule: Q01DX009 (ip), vehicle: DMSO) is 88 % of control; the T/C (endpoint: mean survival time, dose: 100.0 mg/kg/injection, schedule: Q04DX003 (ip), vehicle: DMSO) was 93 % of control; the T/C (endpoint: mean survival time, dose: 200.0 mg/kg/injection, schedule: Q04DX003 (ip), vehicle: DMSO) was 93 % of control.

Turning to `CCCCN(C)N=Nc1ccc(CCC(=O)OCC)cc1`, the T/C by setting is: (endpoint: mean survival time, dose: 72.5 mg/kg/injection, schedule: Q01DX009 (ip), vehicle: saline with Tween-80) 121 % of control; (endpoint: mean survival time, dose: 177.0 mg/kg/injection, schedule: Q01DX009 (ip), vehicle: other) 117 % of control; (endpoint: mean survival time, dose: 187.0 mg/kg/injection, schedule: Q01DX Z (ip), vehicle: saline) 117 % of control; (endpoint: mean survival time, dose: 207.0 mg/kg/injection, schedule: Q01DX001 (ip), vehicle: saline with Tween-80) 111 % of control; (endpoint: mean survival time, dose: 266.0 mg/kg/injection, schedule: Q01DX007 (ip), vehicle: saline) 160 % of control; (endpoint: mean survival time, dose: 290.0 mg/kg/injection, schedule: Q01DX009 (ip), vehicle: saline with Tween-80) 171 % of control. Further, the T/C is, setting by setting: (endpoint: mean survival time, dose: 400.0 mg/kg/injection, schedule: Q01DX007 (ip), vehicle: saline) 171 % of control; (endpoint: mean survival time, dose: 400.0 mg/kg/injection, schedule: Q01DX009 (ip), vehicle: other) 162 % of control; (endpoint: mean survival time, dose: 414.5 mg/kg/injection, schedule: Q01DX001 (ip), vehicle: saline with Tween-80) 119 % of control; (endpoint: mean survival time, dose: 600.0 mg/kg/injection, schedule: Q01DX009 (ip), vehicle: other) 179 % of control; (endpoint: median survival time, dose: 200.0 mg/kg/injection, schedule: Q04DX003 (ip), vehicle: Klucel (hydroxypropylcellulose) (HPC)) 111 % of control; (endpoint: median survival time, dose: 800.0 mg/kg/injection, schedule: Q01DX009 (ip), vehicle: saline) 187 % of control.

On to `C[Si](C)(C)n1ccnc1`, for which the T/C by setting is: under setting [11], 100 % of control; under setting [12], 105 % of control; under setting [13], 94 % of control.

Consider `O=[N+]([O-])c1ccc(NCCO)cc1`, for which the T/C is 96 % of control (endpoint: mean survival time, dose: 50.0 mg/kg/injection, schedule: Q01DX001 (ip), vehicle: saline); 96 % of control under setting [6]; 102 % of control under setting [7]; 96 % of control under setting [8].

In the case of `O=C(N/N=C/c1ccccc1O)c1ccc(Cl)cc1`, the T/C (endpoint: mean survival time, dose: 50.0 mg/kg/injection, schedule: Q01DX009 (ip), vehicle: saline with Tween-80) was 93 % of control; the T/C under setting [1] is 93 % of control; the T/C under setting [3] was 93 % of control.

As to `CC(C)(N)CBr`, the T/C reads like this: under setting [9], 100 % of control; under setting [10], 113 % of control; under setting [14], 95 % of control.

In the case of `O=C1C=C(c2ccccc2)C(=O)O1`, the T/C is, setting by setting: (endpoint: mean survival time, dose: 100.0 mg/kg/injection, schedule: Q04DX002 (ip), vehicle: Klucel (hydroxypropylcellulose) (HPC)) 95 % of control; (endpoint: mean survival time, dose: 200.0 mg/kg/injection, schedule: Q04DX002 (ip), vehicle: Klucel (hydroxypropylcellulose) (HPC)) 92 % of control; (endpoint: mean survival time, dose: 400.0 mg/kg/injection, schedule: Q04DX002 (ip), vehicle: Klucel (hydroxypropylcellulose) (HPC)) 90 % of control.

Consider `S=C(Nc1cc2c3c(c1)CCCN3CCC2)Nc1cc2c3c(c1)CCCN3CCC2`, for which the T/C (endpoint: mean survival time, dose: 50.0 mg/kg/injection, schedule: Q01DX001 (ip), vehicle: saline with Tween-80) was 107 % of control; the T/C (endpoint: mean survival time, dose: 100.0 mg/kg/injection, schedule: Q01DX001 (ip), vehicle: saline with Tween-80) was 94 % of control; the T/C (endpoint: mean survival time, dose: 200.0 mg/kg/injection, schedule: Q01DX001 (ip), vehicle: saline with Tween-80) is 97 % of control; the T/C (endpoint: mean survival time, dose: 400.0 mg/kg/injection, schedule: Q01DX001 (ip), vehicle: saline with Tween-80) was 89 % of control.

Consider `CC(C)c1oc(=O)cc2c1C(O)C1OC(=O)C3(C)C(O)C4OC4C2(C)C13` (centres undefined), for which the T/C by setting is: (endpoint: mean survival time, dose: 25.0 mg/kg/injection, schedule: Q01DX009 (ip), vehicle: Klucel (hydroxypropylcellulose) (HPC)) 109 % of control; (endpoint: mean survival time, dose: 50.0 mg/kg/injection, schedule: Q01DX009 (ip), vehicle: Klucel (hydroxypropylcellulose) (HPC)) 116 % of control; (endpoint: mean survival time, dose: 100.0 mg/kg/injection, schedule: Q01DX009 (ip), vehicle: Klucel (hydroxypropylcellulose) (HPC)) 106 % of control and 88 % of control.

For `NC(N)=N/N=C(/C=N/N=C(N)N)C(O)C(O)CO` (centres undefined), the T/C (endpoint: mean survival time, dose: 15.0 mg/kg/injection, schedule: Q01DX Z (ip), vehicle: carboxymethylcellulose (CMC)) was 101 % of control; the T/C (endpoint: mean survival time, dose: 30.0 mg/kg/injection, schedule: Q01DX Z (ip), vehicle: carboxymethylcellulose (CMC)) is 98 % of control; the T/C (endpoint: mean survival time, dose: 50.0 mg/kg/injection, schedule: Q01DX009 (ip), vehicle: saline) is 98 % of control; the T/C (endpoint: mean survival time, dose: 60.0 mg/kg/injection, schedule: Q01DX Z (ip), vehicle: carboxymethylcellulose (CMC)) was 104 % of control; the T/C (endpoint: mean survival time, dose: 100.0 mg/kg/injection, schedule: Q01DX009 (ip), vehicle: saline) was 98 % of control; the T/C under setting [11] was 102 % of control. For the same molecule, the T/C is 101 % of control (endpoint: mean survival time, dose: 120.0 mg/kg/injection, schedule: Q01DX Z (ip), vehicle: carboxymethylcellulose (CMC)); 95 % of control (endpoint: mean survival time, dose: 200.0 mg/kg/injection, schedule: Q01DX009 (ip), vehicle: saline); 94 % of control under setting [12]; 100 % of control under setting [13].

Turning to `CCC/C=C/CCN1CC1`, the T/C (endpoint: mean survival time, dose: 20.0 mg/kg/injection, schedule: Q01DX001 (ip), vehicle: saline) is 97 % of control; the T/C (endpoint: mean survival time, dose: 40.0 mg/kg/injection, schedule: Q01DX001 (ip), vehicle: saline) was 97 % of control; the T/C under setting [6] was 86 % of control.
